Source: the supplement of paper PMC10307832

Key:
Assay in all cases: relative viability (nuclei count vs DMSO), 5 days (fraction); higher = more cells survive
Wnt-C59 + Dasatinib = compound: CC1=NC=CC(=C1)C2=CC=C(C=C2)CC(=O)NC3=CC=C(C=C3)C4=CN=CC=C4 [Wnt-C59] + Cc1nc(Nc2ncc(C(=O)Nc3c(C)cccc3Cl)s2)cc(N2CCN(CCO)CC2)n1 [Dasatinib] (partner 0.075 µM)
In short: (§1)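 A single step with final 0.05% Triton X-100, 1% formaldehyde and 1 ug/ml Hoechst fixed the cells and stained nuclei 5 days after treatment. Lung cancer cell lines in 1536-well plates had been treated by pin tool the day after seeding with one drug alone or a fixed anchor-drug dose plus five library-drug doses (not always all listed) in √10 steps, and nuclei were counted on 4× images. Relative viability is the ratio of nuclei in treated wells to nuclei in vehicle wells, taken as the median of duplicate plates.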

Lapatinib + Trametinib = compound: CS(=O)(=O)CCNCc1ccc(-c2ccc3ncnc(Nc4ccc(OCc5cccc(F)c5)c(Cl)c4)c3c2)o1 [Lapatinib] + CC(=O)Nc1cccc(-n2c(=O)n(C3CC3)c(=O)c3c(Nc4ccc(I)cc4F)n(C)c(=O)c(C)c32)c1 [Trametinib] (partner 0.02 µM)
In short: as §1

Lapatinib + Navitoclax = compound: CS(=O)(=O)CCNCc1ccc(-c2ccc3ncnc(Nc4ccc(OCc5cccc(F)c5)c(Cl)c4)c3c2)o1 [Lapatinib] + CC1(C)CCC(c2ccc(Cl)cc2)=C(CN2CCN(c3ccc(C(=O)NS(=O)(=O)c4ccc(N[C@H](CCN5CCOCC5)CSc5ccccc5)c(S(=O)(=O)C(F)(F)F)c4)cc3)CC2)C1 [Navitoclax] (partner 0.5 µM)
In short: as §1

Lapatinib + Alpelisib = compound: CS(=O)(=O)CCNCc1ccc(-c2ccc3ncnc(Nc4ccc(OCc5cccc(F)c5)c(Cl)c4)c3c2)o1 [Lapatinib] + Cc1nc(NC(=O)N2CCC[C@H]2C(N)=O)sc1-c1ccnc(C(C)(C)C(F)(F)F)c1 [Alpelisib] (partner 2 µM)
In short: as §1

With COR-L23 the relative viability (Wnt-C59 + Dasatinib; first compound 0.001 µM) was 0.483, the relative viability (Wnt-C59 + Dasatinib; first compound 0.01 µM) was 0.571 and the relative viability (Wnt-C59 + Dasatinib; first compound 0.03162 µM) was 0.641. It also gave a relative viability (Wnt-C59 + Dasatinib; first compound 0.1 µM) of 0.413, a relative viability (Lapatinib + Trametinib; first compound 0.02 µM) of 0.408 and a relative viability (Lapatinib + Trametinib; first compound 0.06325 µM) of 0.555. The relative viability (Lapatinib + Trametinib; first compound 0.2 µM) was 0.68, the relative viability (Lapatinib + Trametinib; first compound 0.6325 µM) was 0.651 and the relative viability (Lapatinib + Trametinib; first compound 2 µM) was 0.551. The relative viability (Lapatinib + Navitoclax; first compound 0.02 µM) was 0.943, the relative viability (Lapatinib + Navitoclax; first compound 0.06325 µM) was 0.938 and the relative viability (Lapatinib + Navitoclax; first compound 0.2 µM) was 1.09. The relative viability (Lapatinib + Navitoclax; first compound 0.6325 µM) was 0.887, the relative viability (Lapatinib + Navitoclax; first compound 2 µM) was 0.854 and the relative viability (Lapatinib + Alpelisib; first compound 0.02 µM) was 0.694. It also gave a relative viability (Lapatinib + Alpelisib; first compound 0.06325 µM) of 0.602, a relative viability (Lapatinib + Alpelisib; first compound 0.2 µM) of 0.871 and a relative viability (Lapatinib + Alpelisib; first compound 0.6325 µM) of 0.752. For the same cell line, the relative viability (Lapatinib + Alpelisib; first compound 2 µM) was 0.688.
NCI-H1755 gave a relative viability (Wnt-C59 + Dasatinib; first compound 0.001 µM) of 0.429, a relative viability (Wnt-C59 + Dasatinib; first compound 0.01 µM) of 0.405 and a relative viability (Wnt-C59 + Dasatinib; first compound 0.03162 µM) of 0.436. It also gave a relative viability (Wnt-C59 + Dasatinib; first compound 0.1 µM) of 0.41, a relative viability (Lapatinib + Trametinib; first compound 0.02 µM) of 0.77 and a relative viability (Lapatinib + Trametinib; first compound 0.06325 µM) of 0.729. For the same cell line, the relative viability (Lapatinib + Trametinib; first compound 0.2 µM) was 0.792, the relative viability (Lapatinib + Trametinib; first compound 0.6325 µM) was 0.793 and the relative viability (Lapatinib + Trametinib; first compound 2 µM) was 0.717. For the same cell line, the relative viability (Lapatinib + Navitoclax; first compound 0.02 µM) was 0.974, the relative viability (Lapatinib + Navitoclax; first compound 0.06325 µM) was 1.02 and the relative viability (Lapatinib + Navitoclax; first compound 0.2 µM) was 0.97. For the same cell line, the relative viability (Lapatinib + Navitoclax; first compound 0.6325 µM) was 1.01, the relative viability (Lapatinib + Navitoclax; first compound 2 µM) was 0.936 and the relative viability (Lapatinib + Alpelisib; first compound 0.02 µM) was 0.906. It also gave a relative viability (Lapatinib + Alpelisib; first compound 0.06325 µM) of 0.873, a relative viability (Lapatinib + Alpelisib; first compound 0.2 µM) of 0.915 and a relative viability (Lapatinib + Alpelisib; first compound 0.6325 µM) of 0.888. It also gave a relative viability (Lapatinib + Alpelisib; first compound 2 µM) of 0.789.
In the case of EMC-BAC-2, the relative viability (Wnt-C59 + Dasatinib; first compound 0.001 µM) is reported as 0.327, the relative viability (Wnt-C59 + Dasatinib; first compound 0.01 µM) is reported as 0.36 and the relative viability (Wnt-C59 + Dasatinib; first compound 0.03162 µM) is reported as 0.34. For the same cell line, the relative viability (Wnt-C59 + Dasatinib; first compound 0.1 µM) was 0.341, the relative viability (Lapatinib + Trametinib; first compound 0.06325 µM) was 0.526 and the relative viability (Lapatinib + Trametinib; first compound 0.6325 µM) was 0.83. For the same cell line, the relative viability (Lapatinib + Trametinib; first compound 2 µM) was 0.789, the relative viability (Lapatinib + Navitoclax; first compound 0.02 µM) was 1.05 and the relative viability (Lapatinib + Navitoclax; first compound 0.06325 µM) was 0.984. The relative viability (Lapatinib + Navitoclax; first compound 0.2 µM) was 1.09, the relative viability (Lapatinib + Navitoclax; first compound 0.6325 µM) was 1.02 and the relative viability (Lapatinib + Navitoclax; first compound 2 µM) was 0.968. For the same cell line, the relative viability (Lapatinib + Alpelisib; first compound 0.02 µM) was 0.72, the relative viability (Lapatinib + Alpelisib; first compound 0.06325 µM) was 0.652 and the relative viability (Lapatinib + Alpelisib; first compound 0.2 µM) was 0.694. For the same cell line, the relative viability (Lapatinib + Alpelisib; first compound 0.6325 µM) was 0.622 and the relative viability (Lapatinib + Alpelisib; first compound 2 µM) was 0.592.
Cell Line NCI-H1734 has a relative viability (Wnt-C59 + Dasatinib; first compound 0.001 µM) of 0.418, a relative viability (Wnt-C59 + Dasatinib; first compound 0.01 µM) of 0.452 and a relative viability (Wnt-C59 + Dasatinib; first compound 0.03162 µM) of 0.516. The relative viability (Wnt-C59 + Dasatinib; first compound 0.1 µM) was 0.442, the relative viability (Lapatinib + Trametinib; first compound 0.06325 µM) was 0.548 and the relative viability (Lapatinib + Trametinib; first compound 0.2 µM) was 0.626. The relative viability (Lapatinib + Trametinib; first compound 0.6325 µM) was 0.691, the relative viability (Lapatinib + Trametinib; first compound 2 µM) was 0.721 and the relative viability (Lapatinib + Navitoclax; first compound 0.06325 µM) was 0.691. The relative viability (Lapatinib + Navitoclax; first compound 0.2 µM) was 0.802, the relative viability (Lapatinib + Navitoclax; first compound 0.6325 µM) was 0.88 and the relative viability (Lapatinib + Navitoclax; first compound 2 µM) was 0.778. The relative viability (Lapatinib + Alpelisib; first compound 0.06325 µM) was 0.489, the relative viability (Lapatinib + Alpelisib; first compound 0.2 µM) was 0.653 and the relative viability (Lapatinib + Alpelisib; first compound 0.6325 µM) was 0.736. For the same cell line, the relative viability (Lapatinib + Alpelisib; first compound 2 µM) was 0.657.
NCI-H727 was tested, and the relative viability (Wnt-C59 + Dasatinib; first compound 0.001 µM) was 0.298, the relative viability (Wnt-C59 + Dasatinib; first compound 0.03162 µM) was 0.363 and the relative viability (Wnt-C59 + Dasatinib; first compound 0.1 µM) was 0.388. It also gave a relative viability (Lapatinib + Trametinib; first compound 0.02 µM) of 0.365, a relative viability (Lapatinib + Trametinib; first compound 0.2 µM) of 0.436 and a relative viability (Lapatinib + Trametinib; first compound 0.6325 µM) of 0.382. The relative viability (Lapatinib + Trametinib; first compound 2 µM) was 0.363, the relative viability (Lapatinib + Navitoclax; first compound 0.02 µM) was 0.388 and the relative viability (Lapatinib + Navitoclax; first compound 0.06325 µM) was 0.341. It also gave a relative viability (Lapatinib + Navitoclax; first compound 0.2 µM) of 0.401, a relative viability (Lapatinib + Navitoclax; first compound 0.6325 µM) of 0.4 and a relative viability (Lapatinib + Navitoclax; first compound 2 µM) of 0.32. The relative viability (Lapatinib + Alpelisib; first compound 0.02 µM) was 0.515, the relative viability (Lapatinib + Alpelisib; first compound 0.06325 µM) was 0.484 and the relative viability (Lapatinib + Alpelisib; first compound 0.2 µM) was 0.472. For the same cell line, the relative viability (Lapatinib + Alpelisib; first compound 0.6325 µM) was 0.558 and the relative viability (Lapatinib + Alpelisib; first compound 2 µM) was 0.366.
